{
  "source": "patent EP1964562A1",
  "about": "“PHARMACEUTICAL COMPOSITIONS CONTAINING DERIVATIVE SUBSTANCES OF THIAZOLIDINEDIONES COMBINED WITH A BIGUANIDE FOR USE IN TYPE 2 DIABETES MELLITUS” (priority 2005, dated 2007)",
  "key": {"[1]": {"test_system": "hepatic pioglitazone metabolism", "conditions": "in vitro, molar concentration equal to pioglitazone; cited from earlier work"}, "[2]": {"molecular_target": "T1, serum proteins, particularly serum albumin (Homo sapiens, UniProt P02768)", "T1 construct": "host or cells: serum", "T1 sequence (P02768 25-609)": "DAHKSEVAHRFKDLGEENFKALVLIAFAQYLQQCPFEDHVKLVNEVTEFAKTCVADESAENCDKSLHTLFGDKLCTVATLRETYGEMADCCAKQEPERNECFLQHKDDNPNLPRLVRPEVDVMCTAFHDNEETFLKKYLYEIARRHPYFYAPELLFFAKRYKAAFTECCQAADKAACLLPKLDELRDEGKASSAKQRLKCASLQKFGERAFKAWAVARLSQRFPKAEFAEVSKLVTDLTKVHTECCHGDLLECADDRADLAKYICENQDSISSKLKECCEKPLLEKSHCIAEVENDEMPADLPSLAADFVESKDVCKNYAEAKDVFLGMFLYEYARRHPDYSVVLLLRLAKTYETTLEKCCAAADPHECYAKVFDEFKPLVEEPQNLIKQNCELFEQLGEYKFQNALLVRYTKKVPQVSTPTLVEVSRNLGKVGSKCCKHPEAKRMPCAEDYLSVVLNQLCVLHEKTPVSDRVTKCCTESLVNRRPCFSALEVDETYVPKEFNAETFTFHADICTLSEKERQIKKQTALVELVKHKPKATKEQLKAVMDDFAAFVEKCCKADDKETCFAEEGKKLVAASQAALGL", "conditions": "serum albumin; cited from earlier work"}, "[3]": {"test_system": "animal models of diabetes", "conditions": "animal models of type 2 diabetes; cited from earlier work"}, "[4]": {"test_system": "individuals diagnosed with DM2 and obesity", "assay": "Example 1: multicentric, randomized, double blind placebo-controlled trial, 8 weeks", "type": "in vivo, patients", "procedure": "A multicentric, randomized, double blind placebo-controlled trial was conducted. In which 600 individuals diagnosed with DM2 and obesity with a BMI higher than 35 kg/m^2 were included."}, "[5]": {"test_system": "patients diagnosed with DM2 and obesity", "assay": "Example 2: multicentric, randomized, double blind placebo-controlled trial, 12 weeks", "type": "in vivo", "conditions": "compared to levels at admission", "procedure": "A multicentric, randomized, double blind placebo-controlled trial was conducted. In which 300 patients diagnosed with DM2 and obesity were included. The object of the study was to establish the reduction in lipid profile and in overweight."}, "[6]": {"test_system": "lipid metabolism", "conditions": "therapeutic doses, short and long term clinical studies; cited from earlier work"}, "[7]": {"conditions": "cited from earlier work"}, "[8]": {"test_system": "serum proteins, particularly serum albumin", "conditions": "human; cited from earlier work"}, "[9]": {"test_system": "P-450 activity", "conditions": "incubated with human P-450 liver microsomes; cited from earlier work"}, "[10]": {"conditions": "cited from earlier work", "remark": "listed apart in the source"}},
  "note": "Where two headings read alike, the source gives them in different places.",
  "data": [
    {"smiles": "CC(=O)N1CCN(c2ccc(OCC3COC(Cn4ccnc4)(c4ccc(Cl)cc4Cl)O3)cc2)CC1", "note": "(centres unmarked) [Ketoconazole]", "values": [
      {"measurement": "inhibition of hepatic pioglitazone metabolism", "setting": "[1]", "value": "up to 85%"}
    ]},
    {"smiles": "CC(=O)c1ccc(CCOc2ccc(CC3SC(=O)NC3=O)cc2)nc1", "note": "(centres unmarked) [M-III]", "values": [
      {"measurement": "bound to serum albumin", "setting": "[2]", "value": "> 98", "unit": "%"},
      {"measurement": "pharmacological activity", "setting": "[3]", "value": "pharmacologically active"}
    ]},
    {"smiles": "CC(O)c1ccc(CCOc2ccc(CC3SC(=O)NC3=O)cc2)nc1", "note": "(centres unmarked) [M-IV]", "values": [
      {"measurement": "bound to serum albumin", "setting": "[2]", "value": "> 98", "unit": "%"},
      {"measurement": "pharmacological activity", "setting": "[3]", "value": "pharmacologically active"}
    ]},
    {"smiles": "CN(C)C(=N)N=C(N)N", "note": "[metformin, Metformin]", "values": [
      {"measurement": "patients' weight change", "setting": "[4]", "value": "increased"},
      {"measurement": "reduction in triglycerides", "setting": "[5]", "value": "no significant reduction"},
      {"measurement": "total cholesterol, LDL cholesterol and triglyceride levels", "setting": "[6]", "value": "reduces"},
      {"measurement": "increase of Tmax by food", "setting": "[7]; dose of 850 mg, with food", "value": 0.583, "unit": "h"},
      {"measurement": "Tmax", "setting": "[7]; human, in vivo, po", "value": 2.5, "unit": "h"},
      {"measurement": "maximum plasma concentration", "setting": "[7]; human, in vivo, po", "value": "≤ 4", "unit": "µg/mL"},
      {"measurement": "non-absorbed fraction recovered in the feces", "setting": "[7]; human, in vivo, po", "value": "20-30%"},
      {"measurement": "steady-state plasma concentrations", "setting": "[7]; human, in vivo, po", "value": "less than 1 µg/ml"},
      {"measurement": "maximum plasma concentration", "setting": "[7]; human, plasma, po", "value": 1.5, "unit": "µg/mL"},
      {"measurement": "plasma concentrations in cases of lactacidosis", "setting": "[7]; in vivo", "value": "exceed 5 µg/ml"}
    ]},
    {"smiles": "CCc1ccc(CCOc2ccc(CC3SC(=O)NC3=O)cc2)nc1", "note": "(centres unmarked) [pioglitazone, Pioglitazone]", "values": [
      {"measurement": "bound to serum proteins", "setting": "[8]", "value": "> 99", "unit": "%"},
      {"measurement": "inhibition of P-450 activity", "setting": "[9]", "value": "did not inhibit"},
      {"measurement": "apparent clearance, CL/F", "setting": "[10]; calculated", "value": "5 to 7", "unit": "L/h"},
      {"measurement": "mean serum half-live", "setting": "[10]; human, serum", "value": "3 to 7", "unit": "h"},
      {"measurement": "renal elimination", "setting": "[10]; in vivo", "value": "negligible"},
      {"measurement": "time to reach steady-state serum concentrations", "setting": "[10]; in vivo", "value": "≤ 7", "unit": "days"},
      {"measurement": "time to maximum concentrations", "setting": "[10]; oral administration at fasting", "value": "≤ 2", "unit": "h"},
      {"measurement": "time until measurable in serum", "setting": "[10]; oral administration at fasting", "value": "≤ 30", "unit": "min"}
    ]}
  ]
}
